Results published in the supplement of paper PMC10307832.

Legend:
Assay in all cases: relative viability (nuclei count vs DMSO), 5 days (fraction); higher = more cells survive
SK-LU-1 = test system: SK-LU-1
Method in brief: (§1)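 Lung cancer cell lines in 1536-well plates were dosed by pin tool the day after seeding, either with one drug alone or with a fixed anchor-drug dose plus five library-drug doses (not always all listed) in √10 steps. After 5 days, cells were fixed and their nuclei stained in one step (final 0.05% Triton X-100, 1% formaldehyde, 1 ug/ml Hoechst), then counted on 4× images. Relative viability is the nuclei count in treated wells divided by that in vehicle wells. Values are medians of duplicate plates.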

Calu-6 = test system: Calu-6
Method in brief: as §1

NCI-H1666 = test system: NCI-H1666
Method in brief: as §1

IA-LM = test system: IA-LM
Method in brief: as §1

PC-14 = test system: PC-14
Method in brief: as §1

EBC-1 = test system: EBC-1
Method in brief: as §1

NCI-H1703 = test system: NCI-H1703
Method in brief: as §1

NCI-H1944 = test system: NCI-H1944
Method in brief: as §1

A549 = test system: A549
Method in brief: as §1

NCI-H661 = test system: NCI-H661
Method in brief: as §1

NCI-H596 = test system: NCI-H596
Method in brief: as §1

NCI-H1299 = test system: NCI-H1299
Method in brief: as §1

`CCNC(=O)c1noc(-c2cc(C(C)C)c(O)cc2O)c1-c1ccc(CN2CCOCC2)cc1` [Luminespib] + CS(=O)(=O)N1CCN(Cc2cc3nc(-c4cccc5[nH]ncc45)nc(N4CCOCC4)c3s2)CC1 [Pictilisib] (partner 1 µM) showed a relative viability (SK-LU-1; first compound 0.002 µM) of 0.582, a relative viability (SK-LU-1; first compound 0.006325 µM) of 0.403 and a relative viability (SK-LU-1; first compound 0.02 µM) of 0.243. For the same compound, the relative viability (SK-LU-1; first compound 0.06325 µM) was 0.161, the relative viability (SK-LU-1; first compound 0.2 µM) was 0.121 and the relative viability (Calu-6; first compound 0.002 µM) was 1.04. The relative viability (Calu-6; first compound 0.006325 µM) was 0.847, the relative viability (Calu-6; first compound 0.02 µM) was 1 and the relative viability (Calu-6; first compound 0.06325 µM) was 0.119. It also gave a relative viability (Calu-6; first compound 0.2 µM) of 0.112, a relative viability (NCI-H1666; first compound 0.002 µM) of 0.423 and a relative viability (NCI-H1666; first compound 0.006325 µM) of 0.375. It also gave a relative viability (NCI-H1666; first compound 0.02 µM) of 0.315, a relative viability (NCI-H1666; first compound 0.06325 µM) of 0.235 and a relative viability (NCI-H1666; first compound 0.2 µM) of 0.145. For the same compound, the relative viability (IA-LM; first compound 0.002 µM) was 0.324, the relative viability (IA-LM; first compound 0.006325 µM) was 0.369 and the relative viability (IA-LM; first compound 0.02 µM) was 0.159. For the same compound, the relative viability (IA-LM; first compound 0.06325 µM) was 0.0483, the relative viability (IA-LM; first compound 0.2 µM) was 0.0407 and the relative viability (PC-14; first compound 0.002 µM) was 0.698. For the same compound, the relative viability (PC-14; first compound 0.006325 µM) was 0.588, the relative viability (PC-14; first compound 0.02 µM) was 0.194 and the relative viability (PC-14; first compound 0.06325 µM) was 0.0484. It also gave a relative viability (PC-14; first compound 0.2 µM) of 0.0383, a relative viability (EBC-1; first compound 0.002 µM) of 0.471 and a relative viability (EBC-1; first compound 0.006325 µM) of 0.365. The relative viability (EBC-1; first compound 0.02 µM) was 0.248, the relative viability (EBC-1; first compound 0.06325 µM) was 0.118 and the relative viability (EBC-1; first compound 0.2 µM) was 0.128. The relative viability (NCI-H1703; first compound 0.002 µM) was 0.251, the relative viability (NCI-H1703; first compound 0.006325 µM) was 0.244 and the relative viability (NCI-H1703; first compound 0.02 µM) was 0.179. For the same compound, the relative viability (NCI-H1703; first compound 0.06325 µM) was 0.179, the relative viability (NCI-H1703; first compound 0.2 µM) was 0.165 and the relative viability (NCI-H1944; first compound 0.002 µM) was 0.337. It also gave a relative viability (NCI-H1944; first compound 0.006325 µM) of 0.258, a relative viability (NCI-H1944; first compound 0.02 µM) of 0.262 and a relative viability (NCI-H1944; first compound 0.06325 µM) of 0.28. For the same compound, the relative viability (NCI-H1944; first compound 0.2 µM) was 0.22, the relative viability (A549; first compound 0.002 µM) was 0.536 and the relative viability (A549; first compound 0.006325 µM) was 0.517. It also gave a relative viability (A549; first compound 0.02 µM) of 0.152, a relative viability (A549; first compound 0.06325 µM) of 0.0437 and a relative viability (A549; first compound 0.2 µM) of 0.0569. It also gave a relative viability (NCI-H661; first compound 0.002 µM) of 0.357, a relative viability (NCI-H661; first compound 0.006325 µM) of 0.344 and a relative viability (NCI-H661; first compound 0.02 µM) of 0.287. The relative viability (NCI-H661; first compound 0.06325 µM) was 0.276, the relative viability (NCI-H661; first compound 0.2 µM) was 0.223 and the relative viability (NCI-H596; first compound 0.002 µM) was 0.343. For the same compound, the relative viability (NCI-H596; first compound 0.006325 µM) was 0.404, the relative viability (NCI-H596; first compound 0.06325 µM) was 0.275 and the relative viability (NCI-H596; first compound 0.2 µM) was 0.267. The relative viability (NCI-H1299; first compound 0.002 µM) was 0.874, the relative viability (NCI-H1299; first compound 0.006325 µM) was 0.698 and the relative viability (NCI-H1299; first compound 0.02 µM) was 0.767. It also gave a relative viability (NCI-H1299; first compound 0.06325 µM) of 0.0703 and a relative viability (NCI-H1299; first compound 0.2 µM) of 0.0666.

`CCNC(=O)c1noc(-c2cc(C(C)C)c(O)cc2O)c1-c1ccc(CN2CCOCC2)cc1` [Luminespib] + C[C@@H](Oc1cc(-c2cnn(C3CCNCC3)c2)cnc1N)c1c(Cl)ccc(F)c1Cl [Crizotinib] (partner 1 µM) was tested, and the relative viability (SK-LU-1; first compound 0.002 µM) was 0.992, the relative viability (SK-LU-1; first compound 0.006325 µM) was 0.708 and the relative viability (SK-LU-1; first compound 0.02 µM) was 0.574. It also gave a relative viability (SK-LU-1; first compound 0.06325 µM) of 0.176, a relative viability (SK-LU-1; first compound 0.2 µM) of 0.155 and a relative viability (Calu-6; first compound 0.002 µM) of 0.793. The relative viability (Calu-6; first compound 0.006325 µM) was 0.88, the relative viability (Calu-6; first compound 0.02 µM) was 1.01 and the relative viability (Calu-6; first compound 0.06325 µM) was 0.109. It also gave a relative viability (Calu-6; first compound 0.2 µM) of 0.097, a relative viability (NCI-H1666; first compound 0.002 µM) of 1.04 and a relative viability (NCI-H1666; first compound 0.006325 µM) of 0.929. For the same compound, the relative viability (NCI-H1666; first compound 0.02 µM) was 1.13, the relative viability (NCI-H1666; first compound 0.06325 µM) was 1 and the relative viability (NCI-H1666; first compound 0.2 µM) was 0.756. For the same compound, the relative viability (IA-LM; first compound 0.002 µM) was 0.753, the relative viability (IA-LM; first compound 0.006325 µM) was 0.848 and the relative viability (IA-LM; first compound 0.02 µM) was 1. It also gave a relative viability (IA-LM; first compound 0.06325 µM) of 0.0538, a relative viability (IA-LM; first compound 0.2 µM) of 0.04 and a relative viability (PC-14; first compound 0.002 µM) of 0.973. It also gave a relative viability (PC-14; first compound 0.006325 µM) of 0.845, a relative viability (PC-14; first compound 0.02 µM) of 1.12 and a relative viability (PC-14; first compound 0.06325 µM) of 0.171. It also gave a relative viability (PC-14; first compound 0.2 µM) of 0.102, a relative viability (EBC-1; first compound 0.002 µM) of 0.196 and a relative viability (EBC-1; first compound 0.006325 µM) of 0.195. The relative viability (EBC-1; first compound 0.02 µM) was 0.179, the relative viability (EBC-1; first compound 0.06325 µM) was 0.173 and the relative viability (EBC-1; first compound 0.2 µM) was 0.165. The relative viability (NCI-H1703; first compound 0.002 µM) was 0.806, the relative viability (NCI-H1703; first compound 0.006325 µM) was 0.653 and the relative viability (NCI-H1703; first compound 0.02 µM) was 0.367. For the same compound, the relative viability (NCI-H1703; first compound 0.06325 µM) was 0.119, the relative viability (NCI-H1703; first compound 0.2 µM) was 0.0858 and the relative viability (NCI-H1944; first compound 0.002 µM) was 1.08. For the same compound, the relative viability (NCI-H1944; first compound 0.006325 µM) was 1.04, the relative viability (NCI-H1944; first compound 0.02 µM) was 0.775 and the relative viability (NCI-H1944; first compound 0.06325 µM) was 0.955. The relative viability (NCI-H1944; first compound 0.2 µM) was 0.97, the relative viability (A549; first compound 0.002 µM) was 0.861 and the relative viability (A549; first compound 0.006325 µM) was 0.593. It also gave a relative viability (A549; first compound 0.02 µM) of 0.51, a relative viability (A549; first compound 0.06325 µM) of 0.0411 and a relative viability (A549; first compound 0.2 µM) of 0.0426. For the same compound, the relative viability (NCI-H661; first compound 0.006325 µM) was 0.936, the relative viability (NCI-H661; first compound 0.02 µM) was 1.05 and the relative viability (NCI-H661; first compound 0.06325 µM) was 0.939. For the same compound, the relative viability (NCI-H661; first compound 0.2 µM) was 0.715, the relative viability (NCI-H596; first compound 0.002 µM) was 1.05 and the relative viability (NCI-H596; first compound 0.006325 µM) was 1. For the same compound, the relative viability (NCI-H596; first compound 0.06325 µM) was 0.851, the relative viability (NCI-H596; first compound 0.2 µM) was 0.938 and the relative viability (NCI-H1299; first compound 0.002 µM) was 0.953. For the same compound, the relative viability (NCI-H1299; first compound 0.006325 µM) was 0.953, the relative viability (NCI-H1299; first compound 0.02 µM) was 1.01 and the relative viability (NCI-H1299; first compound 0.06325 µM) was 0.915. For the same compound, the relative viability (NCI-H1299; first compound 0.2 µM) was 0.229.
